Assay results from patent US11242351B2, “Tricyclic inhibitors of the BCL6 BTB domain protein-protein interaction and uses thereof” (priority 2017, dated 2022).
Like-named read-outs stand apart in the source and are kept apart here.

Experiments:
Karpas422 cells = experiment: Tumor cell growth inhibition assay; format: cell-based; conditions: Homo sapiens, KARPAS-422, 144 h, read-out: GI Karpas EC50
Outline: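 Karpas422 cells were dosed over a 10-point concentration range (top 5 μM) and grown 6 days at 37 °C, 5% CO2, in Alpha-MEM with 10% FBS. Viability was read as ATPlite luminescence.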

[1] = target: BCL6 BTB domain (biotin-thrombin-BCL6 amino acids 1-129) (Homo sapiens (Human), UniProt P41182); experiment: Surface Plasmon Resonance (SPR) assay; format: binding; conditions: Biacore T200, single cycle kinetic analysis
Method: Surface Plasmon Resonance (SPR) Assay
SPR studies were performed using a Biacore™ T200 instrument (GE Health Sciences Inc.). […] The Biacore flow rate was set at 100 μl/min. […] Curve fitting and KD calculations were performed with the Biacore T200 Evaluation software (GE Health Sciences Inc).

[2] = tested on: BCL6 reporter construct in SuDHL4-3×BCL6-TK-Luc cells; experiment: Cell-based luciferase assay (BCL6 reporter); conditions: 48 h, read-out: Luc IC50
Outline: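 SuDHL4 cells stably carrying a 3×BCL6-site TK-promoter firefly luciferase reporter, 15,000 cells/well, dosed over 10 concentrations (top 10 μM) and cultured two days at 37° C, 5% CO2. Luciferase luminescence read after room-temperature equilibration with neolite reagent.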

[3] = Karpas422 cells, six days, ATPlite
[4] = SuDHL4-3×BCL6-TK-Luc cells, two days

`C[C@H]1CN(C2COC2)CCN1c1cc(NC(=O)Cn2cc(-c3cc(C(N)=O)c(O)c(F)c3F)c3c(=O)n4c(nc32)CCCC4)c(Cl)c(F)n1` [I-44, (S)-5-(1-(2-((3-chloro-2-fluoro-6-(2-methyl-4-(oxetan-3-yl)piperazin-1-yl)pyridin-4-yl)amino)-2-oxo-ethyl)-4-oxo-1,4,6,7,8,9-hexahydropyrido [1,2-a]pyrrolo[2,3-d]pyrimidin-3-yl)-3,4-difluoro-2-hydroxy-benzamide] showed an EC50 (Karpas422 cells) of 310 nM, a Kd [1] of 25 nM and an IC50 [2] of 104 nM.
Work on `C[C@H]1CN(CC2CC2)CCN1c1cc(NC(=O)Cn2cc(-c3cc(C(N)=O)c(O)c(F)c3F)c3c(=O)n4c(nc32)CCCC4)c(Cl)c(F)n1` [I-45, (S)-5-(1-(2-((3-chloro-6-(4-(cyclopropyl-methyl)-2-methyl-piperazin-1-yl)-2-fluoropyridin-4-yl)amino)-2-oxoethyl)-4-oxo-1,4,6,7,8,9-hexahydropyrido [1,2-a]pyrrolo[2,3-d]pyrimidin-3-yl)-3,4-difluoro-2-hydroxy-benzamide] yielded an EC50 (Karpas422 cells) of 1330 nM, a Kd [1] of 31.8 nM and an IC50 [2] of 469 nM.
Compound `C[C@H]1CN(CC(CO)CO)CCN1c1cc(NC(=O)Cn2cc(-c3cc(C(N)=O)c(O)c(F)c3F)c3c(=O)n4c(nc32)CCC4)c(Cl)c(F)n1` [I-46, (S)-5-(1-(2-((3-chloro-2-fluoro-6-(4-(3-hydroxy-2-(hydroxymethyl)propyl)-2-methylpiperazin-1-yl)pyridin-4-yl)amino)-2-oxoethyl)-4-oxo-4,6,7,8-tetrahydro-1H-dipyrrolo[1,2-a:2′,3′-d]pyrimidin-3-yl)-3,4-difluoro-2-hydroxybenzamide] has an EC50 (Karpas422 cells; [3]) of 487 nM, a Kd [1] of 3.13 nM and an IC50 [2, 4] of 935 nM.
For `NC(=O)c1cc(-c2cn(CC(=O)Nc3cc(N4CCCC4)nc(F)c3Cl)c3nc4n(c(=O)c23)CCC4)c(F)c(F)c1O` [I-47, 5-(1-(2-((3-chloro-2-fluoro-6-(pyrrolidin-1-yl)pyridin-4-yl)amino)-2-oxoethyl)-4-oxo-4,6,7,8-tetrahydro-1H-dipyrrolo[1,2-a:2′,3′-d]pyrimidin-3-yl)-3,4-difluoro-2-hydroxy-benzamide], the EC50 (Karpas422 cells; [3]) was 212 nM, the Kd [1] was 23.9 nM and the IC50 [2, 4] was 166 nM.
`C[C@H]1CN(CC(F)F)CCN1c1cc(NC(=O)Cn2cc(-c3cc(C(N)=O)c(O)c(F)c3F)c3c(=O)n4c(nc32)CCC4)c(Cl)c(F)n1` [I-48, (S)-5-(1-(2-((3-chloro-6-(4-(2,2-difluoroethyl)-2-methylpiperazin-1-yl)-2-fluoropyridin-4-yl)amino)-2-oxoethyl)-4-oxo-4,6,7,8-tetrahydro-1H-dipyrrolo[1,2-a:2′,3′-d]pyrimidin-3-yl)-3,4-difluoro-2-hydroxy-benzamide] gave an EC50 (Karpas422 cells; [3]) of 64.6 nM, a Kd [1] of 13.7 nM and an IC50 [2, 4] of 96.4 nM.
`C[C@H]1CN(C2COC2)CCN1c1cc(NC(=O)Cn2cc(-c3cc(C(N)=O)c(O)c(F)c3F)c3c(=O)n4c(nc32)CCCCC4)c(Cl)c(F)n1` [I-50, (S)-5-(1-(2-((3-chloro-2-fluoro-6-(2-methyl-4-(oxetan-3-yl)piperazin-1-yl)pyridin-4-yl)amino)-2-oxo-ethyl)-4-oxo-4,6,7,8,9,10-hexahydro-1H-pyrrolo [2′,3′:4,5]pyrimido [1,2-a]azepin-3-yl)-3,4-difluoro-2-hydroxybenzamide] gave an EC50 (Karpas422 cells; [3]) of 475 nM, a Kd [1] of 43 nM and an IC50 [2, 4] of 395 nM.
`C[C@H]1COCCN1c1cc(NC(=O)Cn2cc(-c3cc(C(N)=O)c(O)c(F)c3F)c3c(=O)n4c(nc32)CCCCC4)c(Cl)c(F)n1` [I-51, (S)-5-(1-(2-((3-chloro-2-fluoro-6-(3-methyl-morpholino)pyridin-4-yl)amino)-2-oxoethyl)-4-oxo-4,6,7,8,9,10-hexahydro-1H-pyrrolo [2′,3′:4,5]pyrimido [1,2-a]azepin-3-yl)-3,4-difluoro-2-hydroxy-benzamide] showed an EC50 (Karpas422 cells; [3]) of 974 nM, a Kd [1] of 89.1 nM and an IC50 [2, 4] of 3050 nM.
